What all share (test): inhibition of tumour cell growth, NCI panel, 48 h
For assay [1], the system named is COLO 205 colon.
For assay [2], the system named is HCC-2998 colon.
The test system of assay [3] is HT29 colon.
In assay [4] the test system is IGROV1 ovarian.
Assay [5] deals with K-562 leukemia.
Assay [6] concerns MDA-MB-435.
Assay [7] has as its system OVCAR-8 ovarian.
Assay [8] concerns RXF 393 renal.
The test system of assay [9] is SF-539 CNS.
Assay [10] deals with SK-MEL-5 melanoma.

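Step 1: Grow cells in 96-well plates. Step 2: Expose to compound for 48 hours at 5 concentrations. Step 3: Interpolate endpoints linearly; if unreached, use highest concentration. At the GI50, growth is halved. The concentration for full growth arrest is given as TGI.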 Bounds are passed on as bounds.

For `CCc1c[n+]2c(cc1C1=CN3c4ccccc4[C@]45CCN6C/C(=C/CO)[C@H](C[C@H]64)[C@@H]([C@@H]1O)[C@H]35)-c1[nH]c3ccccc3c1CC2`, the TGI in assay [1], in assay [2], in assay [3], in assay [4], in [5] and in assay [6] was more than 50 µM throughout. Further, the TGI in [7], in assay [8], in [9] and in [10] was more than 50 µM each time.

For the compound `CC(NC(=O)C(NC(=O)C(NC(=O)C(F)(F)F)C(C)C)C(C)C)C(=O)Oc1c(Cl)c(Cl)c(Cl)c(Cl)c1Cl` (stereo not given), the TGI in [1], in assay [2], in assay [3], in assay [4], in [5] and in assay [6] was more than 100 µM in each case. The TGI in assay [7], in assay [8], in assay [9] and in assay [10] was more than 100 µM throughout.

Turning to `CCOC(=O)/C(C(N)=O)=C(/O)c1cnccn1`, the TGI in assay [1], in assay [2], in assay [3], in assay [4], in assay [5] and in [6] was more than 100 µM in each case. In addition, the TGI in [7], in [8], in assay [9] and in assay [10] was more than 100 µM throughout.

In the case of `C#CCn1c(=O)c2cc(OC)c(OC)cc2n(CC#C)c1=O`, the TGI in assay [1], in assay [2], in assay [3], in [4], in [5] and in assay [6] was more than 10 µM throughout. The TGI in [7], in [8], in assay [9] and in [10] was more than 10 µM each time.

For the compound `C=c1c2ccccc2oc2nc3[nH]c(N)c(C#N)c(N)c3c(=N)c12`, the TGI in assay [1] was more than 100 µM; in assay [2], 66.7 µM; in [3], 80.8 µM; in assay [4], 42.5 µM; in assay [5] it was more than 100 µM; in [6], more than 100 µM. Besides, the TGI in [7] was 54.6 µM; in [8], more than 100 µM; in [9] it was 71.5 µM; in assay [10], 57.2 µM.

`O=C(NC12CC3CC(CC(C3)C1)C2)n1cnc2c(Cl)ncnc21`: the TGI was 32.6 µM in assay [1]; 38.9 µM in assay [2]; 70.3 µM in assay [3]; 35.4 µM in [4]; more than 100 µM in [5]; 40 µM in [6]. Besides, the TGI in assay [7] was 66.4 µM; in assay [8] it was more than 100 µM; in [9], 81.7 µM; in assay [10] it was 53.5 µM.

As to `O=C(NC1CCCCC1)N1CCNC1=S`, the TGI in assay [1], in assay [2], in assay [3], in assay [4], in [5] and in assay [6] was more than 100 µM in each case. For the same compound, the TGI in [7], in assay [8], in assay [9] and in assay [10] was more than 100 µM throughout.

Regarding `O=C(/C=C/c1cc2ccccc2[nH]c1=O)c1ccc(O)cc1`, the GI50 was 4.51 µM in assay [1]; 4.13 µM in assay [2]; 3.61 µM in assay [3]; 4.35 µM in assay [4]; 3.89 µM in [5]; 2.94 µM in [6]. For the same compound, the GI50 in [7] is 3.23 µM; in assay [8], 1.65 µM; in assay [9], 2.55 µM; in [10], 3.98 µM. In addition, the TGI in assay [1] is 19.7 µM; in assay [2], 16 µM; in [3], 12.1 µM; in assay [4], 45.1 µM; in [5], more than 100 µM; in assay [6] it was 16.8 µM. Besides, the TGI amounted to 21.1 µM in assay [7], 3.23 µM in [8], 8.64 µM in assay [9] and 13.3 µM in [10].

As for `C1=Nc2ccc(cc2)-c2ccc(cc2)N=Cc2ccccc2OCc2cccc(n2)COc2ccccc21`, the TGI in assay [1], in assay [2], in [3], in assay [4], in assay [5] and in assay [6] was more than 100 µM each time. Further, the TGI in assay [7] is more than 100 µM; in assay [8], more than 84 µM; in [9] it was more than 66.3 µM; in assay [10], more than 100 µM.

With `COc1cc([C@@H]2c3cc4c(cc3[C@H](OC3OC5COC(C(C)C)OC5C(O)C3O)C3COC(=O)[C@@H]32)OCO4)cc(OC)c1OC` (stereo not given in full), the TGI is 14.6 µM in assay [1]; 21.7 µM in [2]; 7.11 µM in assay [3]; 12.5 µM in assay [4]; more than 100 µM in assay [5]; more than 54.2 µM in assay [6]. Also, the TGI in [7] was 30.1 µM; in assay [8], 9.46 µM; in assay [9], more than 25.9 µM; in [10], 20.4 µM.

For `Cc1cc2nc3c(C)c4ccccc4c(C)n3c2cc1C`, the TGI in [1], in [2], in assay [3], in assay [4], in [5] and in assay [6] was more than 10 µM each time. In addition, the TGI was more than 10 µM in assay [7], 8.66 µM in [8], 4.88 µM in assay [9] and more than 10 µM in [10].

As for `Nc1nc(Cl)cc(Oc2ccc(Cl)cc2)n1`, the TGI in [1], in [2], in assay [3], in [4], in assay [5] and in assay [6] was more than 100 µM in each case. In addition, the TGI in [7], in [8], in assay [9] and in assay [10] was more than 100 µM in each case.

Consider `CN1CN(c2ccccc2)C2(CCN(C(=O)OC(C)(C)C)CC2)C1=O`, for which the TGI in assay [1], in [2], in assay [3], in assay [4], in assay [5] and in [6] was more than 100 µM in each case. For the same compound, the TGI in assay [7], in assay [8], in assay [9] and in assay [10] was more than 100 µM in each case.

On to `O=C(O)C(=Cc1ccc(-c2ccc([N+](=O)[O-])cc2)o1)C(=O)O`, for which the TGI in assay [1], in [2], in assay [3], in assay [4], in [5] and in [6] was more than 100 µM in each case. Besides, the TGI in [7], in [8], in [9] and in assay [10] was more than 100 µM each time.

Regarding `COc1cc2c(cc1OC)C/C(=N\O)c1cc(OC)c(OC)cc1/C=C\2`, the TGI in assay [1] was 28.7 µM; in assay [2], 31.8 µM; in assay [3], 15.4 µM; in [4], 72.8 µM; in assay [5], more than 100 µM; in [6] it was 4.05 µM. For the same compound, the TGI in assay [7] was 73.3 µM; in [8], 38.4 µM; in assay [9] it was 18 µM; in assay [10] it was 8.26 µM.

Turning to `N#Cc1ccccc1C#C/C=C\C#Cc1ccccn1`, the TGI in assay [1] was 73.5 µM; in [2], 27.6 µM; in assay [3] it was 41.6 µM; in [4], 36.7 µM; in [5], more than 100 µM; in [6] it was 20.4 µM. For the same compound, the TGI in assay [7] worked out at 30.3 µM; in assay [8], 33.1 µM; in assay [9], 45.1 µM; in assay [10] it was 12.9 µM.

As to `CCN1CCC(O)(/C=C/c2ccc(Cl)c(Cl)c2)C(C(=O)/C=C/c2ccc(Cl)c(Cl)c2)C1` (stereo not given), the TGI in assay [1] came out at 1.74 µM; in assay [2], 3.25 µM; in assay [3], 1.82 µM; in assay [4] it was 1.71 µM; in assay [5] it was 8.51 µM; in assay [6], 2.22 µM. Besides, the TGI amounted to 1.87 µM in [7], 2.71 µM in assay [8], 3.55 µM in [9] and 2.18 µM in [10].

With `COc1cc(/C=[N+](\[O-])c2ccccc2Cl)ccc1OC(=S)S`, the TGI in assay [1] is 51 µM; in [2], more than 100 µM; in [3], more than 100 µM; in [4], more than 100 µM; in assay [5], more than 100 µM; in assay [6] it was 57.7 µM. Further, the TGI was more than 100 µM in assay [7], 89.3 µM in assay [8], more than 100 µM in assay [9] and 38.2 µM in [10].

With `COC(=O)C1=C(C(=O)OC)SC2(S1)C(C(=O)OC)=C(C(=O)OC)Sc1c2ssc1=O`, the TGI is 2.08 µM in assay [1]; 2.72 µM in [2]; 1.78 µM in [3]; 3.63 µM in assay [4]; 2.86 µM in assay [5]; 4.36 µM in [6]. The TGI in assay [7] came out at 2.69 µM; in [8] it was 2.7 µM; in [9], 3.35 µM; in assay [10], 2.59 µM.

For `COc1ccc(C2=Nn3c(nc4sc5c(c4c3=O)CCCC5)SC2)cc1`, the TGI in assay [1], in [2], in [3], in assay [4], in assay [5] and in [6] was more than 100 µM throughout. Further, the TGI in assay [7], in assay [8], in [9] and in [10] was more than 100 µM each time.

`Cc1ccc(S(=O)(=O)N(CC(O)COc2ccccc2)c2ccccc2Cl)cc1` (stereo not given): the TGI in [1] came out at 34 µM; in [2], 37 µM; in [3] it was 31.9 µM; in [4], 25.1 µM; in [5], 36.1 µM; in [6] it was 31.7 µM. Moreover, the TGI in assay [7] stood at 33.5 µM; in assay [8], 32 µM; in [9] it was 33.2 µM; in assay [10], 27.8 µM.

As to `O=C1/C(=C/Cc2ccco2)N=C(c2ccccc2)N1c1nc2ccc(Sc3ccccc3)cc2[nH]1`, the TGI in [1] was 36 µM; in assay [2] it was 40.6 µM; in assay [3], 73.6 µM; in assay [4] it was more than 100 µM; in assay [5] it was more than 100 µM; in [6], 23.5 µM. Moreover, the TGI is 62.6 µM in assay [7], 36.1 µM in assay [8], more than 100 µM in assay [9] and 31.8 µM in [10].

In the case of `CCOC(=O)C(NS(=O)(=O)c1ccccc1)(C(F)(F)F)P(=O)(OCC(C)C)OCC(C)C` (stereo not given), the TGI in [1], in assay [2], in assay [3], in assay [4], in assay [5] and in assay [6] was more than 100 µM throughout. Besides, the TGI in assay [7], in assay [8], in assay [9] and in assay [10] was more than 100 µM throughout.

In the case of `c1ccc(C(OCCN2CC3CCC(C2)N3)c2ccccc2)cc1`, the TGI in [1] is 42.2 µM; in assay [2], 32.3 µM; in assay [3], more than 100 µM; in assay [4], more than 100 µM; in [5] it was more than 100 µM; in [6] it was more than 100 µM. The TGI in [7] is more than 100 µM; in assay [8] it was more than 100 µM; in assay [9], more than 100 µM; in assay [10] it was 36.1 µM.

For `Cc1cccc(N=Nc2ccc(O)c(CN(C)C)c2)c1`, the TGI in assay [1] amounted to 28.6 µM; in assay [2], 30.3 µM; in [3], 53.8 µM; in assay [4] it was 65.9 µM; in assay [5], 16.1 µM; in assay [6], 35.8 µM. Further, the TGI in [7] amounted to 85.1 µM; in assay [8], 73.7 µM; in assay [9] it was 41.6 µM; in [10], 27.5 µM.

The values above are taken from PubChem BioAssay (NCI).
